# Results taken from PubChem BioAssay (NCI).
#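 GI50 is the concentration that inhibits growth by half. TGI is the concentration that stops growth completely.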
# What was measured:
# Test in all cases: inhibition of tumour cell growth, NCI panel, 384-well format
# [1] = test system: 786-0 renal
# [2] = test system: A498 renal
# [3] = test system: ACHN renal
# [4] = test system: CAKI-1 renal
# [5] = test system: COLO 205 colon
# [6] = test system: DU-145 prostate
# [7] = test system: EKVX NSCLC
# [8] = test system: HCC-2998 colon
# [9] = test system: HCT-116 colon
# [10] = test system: HCT-15 colon
# [11] = test system: HL-60(TB) leukemia
# [12] = test system: HOP-62 NSCLC
# [13] = test system: HOP-92 NSCLC
# [14] = test system: HS 578T breast
# [15] = test system: HT29 colon
# [16] = test system: IGROV1 ovarian
# [17] = test system: K-562 leukemia
# [18] = test system: KM12 colon
# [19] = test system: LOX IMVI melanoma
# [20] = test system: M14 melanoma
# [21] = test system: MALME-3M melanoma
# [22] = test system: MCF7 breast
# [23] = test system: MDA-MB-435 melanoma
# [24] = test system: MOLT-4 leukemia
# [25] = test system: NCI-H226 lung
# [26] = test system: NCI-H460 NSCLC
# [27] = test system: NCI/ADR-RES ovarian
# [28] = test system: OVCAR-3 ovarian
# [29] = test system: OVCAR-4 ovarian
# [30] = test system: OVCAR-8 ovarian
# [31] = test system: PC-3 prostate
# [32] = test system: RPMI-8226 leukemia
# [33] = test system: RXF 393 renal
# [34] = test system: SF-268 CNS
# [35] = test system: SF-295 CNS
# [36] = test system: SF-539 CNS
# [37] = test system: SK-MEL-2 melanoma
# [38] = test system: SK-MEL-28 melanoma
# [39] = test system: SK-MEL-5 melanoma
# [40] = test system: SK-OV-3 ovarian
# [41] = test system: SN12C renal
# [42] = test system: SW-620 colon
# [43] = test system: T-47D breast
# [44] = test system: U251 glioblastoma
# [45] = test system: UACC-257 melanoma
# [46] = test system: UACC-62 melanoma
# [47] = test system: UO-31 renal
compound,measurement,setting,value
COc1ncc(-c2nc3c(n2C(C)C)[C@H](c2ccc(Cl)cc2)N(c2cc(Cl)cn(C)c2=O)C3=O)c(OC)n1,GI50,[1],62.7 µM
same,TGI,[1],> 100 µM
same,GI50,[2],9.44 µM
same,TGI,[2],52.9 µM
same,GI50,[3],13.1 µM
same,TGI,[3],47.8 µM
same,GI50,[4],6.27 µM
same,TGI,[4],> 64.1 µM
same,GI50,[5],62.6 µM
same,TGI,[5],> 100 µM
same,GI50,[6],64.4 µM
same,TGI,[6],> 100 µM
same,GI50,[7],58.7 µM
same,TGI,[7],> 100 µM
same,GI50,[8],65.7 µM
same,TGI,[8],> 100 µM
same,GI50,[9],18.2 µM
same,TGI,[9],> 100 µM
same,GI50,[10],36 µM
same,TGI,[10],> 100 µM
same,GI50,[11],16.7 µM
same,TGI,[11],31.1 µM
same,GI50,[12],> 51 µM
same,TGI,[12],> 100 µM
same,GI50,[13],24.8 µM
same,TGI,[13],> 92.2 µM
same,GI50,[14],33.3 µM
same,TGI,[14],> 100 µM
same,GI50,[15],51.5 µM
same,TGI,[15],> 100 µM
same,GI50,[16],24.9 µM
same,TGI,[16],> 100 µM
same,GI50,[17],33.2 µM
same,TGI,[17],> 100 µM
same,GI50,[18],49.8 µM
same,TGI,[18],> 100 µM
same,GI50,[19],18.9 µM
same,TGI,[19],> 100 µM
same,GI50,[20],48.5 µM
same,TGI,[20],> 100 µM
same,GI50,[21],12.7 µM
same,TGI,[21],42.5 µM
same,GI50,[22],24.7 µM
same,TGI,[22],> 100 µM
same,GI50,[23],60.3 µM
same,TGI,[23],> 100 µM
same,GI50,[24],2.06 µM
same,TGI,[24],5.15 µM
same,GI50,[25],13 µM
same,TGI,[25],30.2 µM
same,GI50,[26],14.2 µM
same,TGI,[26],45.5 µM
same,GI50,[27],62.6 µM
same,TGI,[27],> 100 µM
same,GI50,[28],33.3 µM
same,TGI,[28],90 µM
same,GI50,[29],28.9 µM
same,TGI,[29],> 100 µM
same,GI50,[30],66.1 µM
same,TGI,[30],> 100 µM
same,GI50,[31],39.7 µM
same,TGI,[31],> 100 µM
same,GI50,[32],20.7 µM
same,TGI,[32],42.7 µM
same,GI50,[33],35.5 µM
same,TGI,[33],> 89.3 µM
same,GI50,[34],> 50.5 µM
same,TGI,[34],> 77.9 µM
same,GI50,[35],63.6 µM
same,TGI,[35],> 100 µM
same,GI50,[36],> 73 µM
same,TGI,[36],> 100 µM
same,GI50,[37],> 100 µM
same,TGI,[37],> 100 µM
same,GI50,[38],> 62.3 µM
same,TGI,[38],> 100 µM
same,GI50,[39],12.7 µM
same,TGI,[39],29.6 µM
same,GI50,[40],> 76 µM
same,TGI,[40],> 100 µM
same,GI50,[41],> 93.2 µM
same,TGI,[41],> 100 µM
same,GI50,[42],53.5 µM
same,TGI,[42],97.8 µM
same,GI50,[43],34.3 µM
same,TGI,[43],> 91.8 µM
same,GI50,[44],65.4 µM
same,TGI,[44],> 100 µM
same,GI50,[45],17.5 µM
same,TGI,[45],37.3 µM
same,GI50,[46],5.25 µM
same,TGI,[46],22.7 µM
same,GI50,[47],12.4 µM
same,TGI,[47],28.2 µM
